Series [1] has as its target FABP1. Conditions: known Kd value, cited from earlier work.
In series [2] the target is T1, FABP1 (Mus musculus, UniProt P12710).
T1 sequence (P12710 1-127): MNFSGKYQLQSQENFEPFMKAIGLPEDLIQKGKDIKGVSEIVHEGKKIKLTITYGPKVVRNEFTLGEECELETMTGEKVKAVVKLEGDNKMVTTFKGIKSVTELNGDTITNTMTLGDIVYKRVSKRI
The series is described as follows: cis-parinaroyl-CoA displacement from FABP1. In kind it is binding, murine. Conditions: for fold stronger binding by FABP1 as compared to FABP3, FABP5, and FABP7: different displacement assays; for fold weaker binding to FABP1 than OEA: cis-parinaroyl-CoA displacement Kis; for Ki: displacement of FABP1-bound cis-parinaroyl-CoA (footnote a), 24°C, mean ± SEM, n=5, ND = no significant displacement.

Series [3] concerns the target T1, FABP1. The series is described as follows: NBD-stearic acid displacement from FABP1. Conditions: not shown. It is filed as binding, murine.
Series [4] deals with T1, FABP1. The experiment in a line: ANS displacement from FABP1. It is filed as binding, murine.
The target in series [5] is T1, FABP1. The series is described as follows: Direct binding to FABP1: quenching of intrinsic Tyr fluorescence. The arrangement: species or system murine. Conditions: FABP1 500nM, AEA 3μM.
Series [6] addresses T1, FABP1. The series is described as follows: DAUDA displacement from FABP1. Conditions: very high AEA concentration, e.g. 9 μM; not shown. In kind it is binding, murine.
The target in series [7] is HSP70. The conditions noted are these: read-out: Kd of HSP70 binding AEA; cited from earlier work.
Series [8] deals with T2, ACBP (Mus musculus, UniProt P31786).
T2 sequence (P31786 1-87): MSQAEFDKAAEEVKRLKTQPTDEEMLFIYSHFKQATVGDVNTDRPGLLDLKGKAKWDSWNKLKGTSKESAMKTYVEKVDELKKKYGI
The experiment in a line: Direct binding to ACBP: intrinsic Tyr/Trp fluorescence. Conditions: ACBP 500nM. Further details: species or system murine.

The conditions of series [9]: in vivo; cited from earlier work.
For series [10], the target named is T3, SCP2 (Homo sapiens, UniProt P22307).
T3 sequence (P22307 21-143 isoform P22307-2 limits assumed): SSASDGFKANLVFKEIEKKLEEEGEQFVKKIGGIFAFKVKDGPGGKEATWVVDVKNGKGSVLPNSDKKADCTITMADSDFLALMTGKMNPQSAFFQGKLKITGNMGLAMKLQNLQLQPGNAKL
The experiment in a line: NBD-stearic acid displacement from SCP2. In kind it is binding. The conditions noted are these: displacement of SCP2-bound NBD-stearic acid; SCP2 500nM, NBD-stearate 500nM.

The subject of series [11] is FABP4. The conditions noted are these: cited from earlier work.
The target of series [12] is T1, FABP1. The experiment in a line: NBD-AEA displacement from FABP1. In kind it is binding, murine. The conditions noted are these: for displacement of / effect on FABP1-bound NBD-AEA (in words): FABP1 500nM, NBD-AEA 1μM.
Series [13] has as its target T1, FABP1. The series is described as follows: FABP1 binding of fluorescent ligands. Further details: species or system murine. The conditions noted are these: read-out: Kd of FABP1 binding NBD-AEA; obtained herein (not shown).
Series [14] deals with T3, SCP2. The experiment in a line: Direct binding to SCP2: intrinsic Trp fluorescence.
Setting [15] is: FABP1 500nM, cis-parinaroyl-CoA 500nM.

Like-named read-outs stand apart in the source and are kept apart here.

For `CC/C=C/C=C\C=C/C=C/CCCCCCCC(=O)SCCNC(=O)CCNC(=O)[C@H](O)C(C)(C)COP(=O)(O)OP(=O)(O)OC[C@H]1O[C@@H](n2cnc3c(N)ncnc32)[C@H](O)[C@@H]1OP(=O)(O)O` (relative stereo) [cis-parinaroyl-CoA], the Kd is 27 ± 4 nM in [1] (read-out: Kd1 of FABP1 binding cis-parinaroyl-CoA) and 66 ± 8 nM in series [1] (read-out: Kd2 of FABP1 binding cis-parinaroyl-CoA).

With `CCCCC/C=C\C/C=C\C/C=C\C/C=C\CCCC(=O)OC(CO)CO` [2-AG, 2-arachidonoylglycerol], in [2], the “fold stronger binding by FABP1 as compared to SCP2” value is given as not below 3 fold; the “fold stronger binding by FABP1 as compared to FABP3, FABP5, and FABP7” value was 2–15 fold. Also, in series [2] (setting [15]), the “maximal displacement of FABP1-bound cis-parinaroyl-CoA” value is given as “about 50%”.

With `CCCCC/C=C\C/C=C\C/C=C\C/C=C\CCCC(=O)NCCO` [AEA, n-6 arachidonoylethanolamide], in series [3], the “displacement of FABP1-bound NBD-stearic acid (in words)” value is on record as “did not displace”. Besides, the “displacement of FABP1-bound ANS (in words)” value in series [4] is “did not displace”. In addition, the “effect on FABP1 intrinsic Tyr fluorescence emission at 304 nm (in words)” value in series [5] was “decreased”. Moreover, the “maximal displacement of FABP1-bound cis-parinaroyl-CoA” value in series [2] (setting [15]) was “about 50%”. In addition, the “displacement of FABP1-bound DAUDA” value in series [6] was found to be 13%. In addition, the Kd in [7] was 3700 ± 500 nM. In [8], the “quenching of ACBP aromatic amino acid (Tyr) fluorescence emission (in words)” value (from here on “quenching of ACBP aromatic amino acid”) is on record as “neither OEA nor AEA quenched”.

Regarding `CCCCC/C=C\C/C=C\C/C=C\C/C=C\CCCC(=O)Nc1ccc(O)cc1` [AM404], the “maximal displacement of FABP1-bound cis-parinaroyl-CoA” value in [2] (setting [15]) is given as “about 50%”.

As for `CCCCC/C=C\C/C=C\C/C=C\C/C=C\CCCC(=O)O` [ARA, arachidonic acid], the “first-pass clearance by liver” value in [9] is listed as approximately 50%.

`CCc1c(-c2ccccc2)c(-c2ccccc2)nn1-c1ccccc1-c1cccc(OCC(=O)O)c1` [BMS309403] yielded a Ki in series [10] of 5500 ± 500 nM. Besides, the “affinity of FABP4 for BMS309403” value in series [11] was less than 2 nM. Further, in series [2] (BMS309403), the “fold stronger binding by FABP1 than FABP3” value came to 10 fold and the “fold stronger binding by FABP1 than FABP5” value was 12–50 fold. Besides, the “maximal displacement of FABP1-bound cis-parinaroyl-CoA (in words)” value in series [2] (setting [15]) is “almost completely”.

In the case of `C=C(C)[C@@H]1CCC(C)=C[C@H]1c1c(O)cc(CCCCC)cc1O` [Cannabidiol, cannabidiol], in series [2] (setting [15]), the “maximal displacement of FABP1-bound cis-parinaroyl-CoA” value is “about 50%”. The “fold stronger binding by FABP1 as compared to FABP3, FABP5, and FABP7” value in [2] was 9–11 fold.

Take `CC/C=C\C/C=C\C/C=C\C/C=C\C/C=C\C/C=C\CCC(=O)NCCO` [DHEA, n-3 docosahexaenoylethanolamide]: the “fold weaker binding to FABP1 than OEA” value in series [2] is on record as 4–10 fold.

For `CC/C=C\C/C=C\C/C=C\C/C=C\C/C=C\CCCC(=O)NCCO` [EPEA, n-3 eicosapentaenoylethanolamide], in [2], the “fold weaker binding to FABP1 than OEA” value is recorded as 4–10 fold and the affinity, expressed as Ki, was 390 ± 30 nM.

With `CCCC(C)(C)c1ccc2c(c1)OC(C)(C)[C@@H]1CC=C(C)C[C@@H]21` [JWH-133], the Ki entry in series [2] was “did not displace”; in series [12] (displacement of FABP1-bound NBD-AEA (footnote b), 24°C, mean ± SEM, n=5, ND = no significant displacement), “did not displace”.

As for `O=C(CCC/C=C\C/C=C\C/C=C\C/C=C\CCCCCNc1ccc([N+](=O)[O-])c2nonc12)NCCO` [NBD-AEA], the Kd in series [13] turned out to be 700 ± 100 nM.

`CCCCCCCC/C=C\CCCCCCCC(=O)NCCO` [OEA, oleoylethanolamide] yielded a Kd in series [14] of 390 nM. In [14] (SCP2 500nM, OEA 1.4 μM), the “effect on SCP2 Trp fluorescence emission (in words)” value was “significantly increased”. Besides, in [8], the “quenching of ACBP aromatic amino acid” value was “neither OEA nor AEA quenched”.

Consider `CC(=O)Nc1ccc(Nc2nc(-c3ccc(Cl)c(Cl)c3)cs2)cc1` [SCPI1], for which affinity in series [10] was put at a Ki of 680 ± 60 nM.

Take `CCCCCc1cc(O)c2c(c1)OC(C)(C)[C@@H]1CCC(C)=C[C@@H]21` [THC, Δ^9-tetrahydrocannabinol]: the “maximal displacement of FABP1-bound cis-parinaroyl-CoA” value in series [2] (setting [15]) was “about 50%”. In series [12], the “displacement of / effect on FABP1-bound NBD-AEA (in words)” value is “essentially all”.

In the case of `CCCCC/C=C\C/C=C\C/C=C\C/C=C\CCCC(=O)Nc1ccc(O)cc1C` [VDM11], the “maximal displacement of FABP1-bound cis-parinaroyl-CoA” value in series [2] (setting [15]) was “about 50%”.

In the case of `CCCCCCCC/C=C\CCCCCCCC(=O)SCCNC(=O)CCNC(=O)[C@H](O)C(C)(C)COP(=O)(O)OP(=O)(O)OC[C@H]1O[C@@H](n2cnc3c(N)ncnc32)[C@H](O)[C@@H]1OP(=O)(O)O` [oleoyl-CoA], the “quenching of ACBP aromatic amino acid” value in [8] was “significantly quenched”.

Regarding SR-144528, the “displacement of / effect on FABP1-bound NBD-AEA (in words)” value in series [12] was “increased the fluorescence”.

(Values after article PMC5322802 (Biochemistry, 2016).)
